Test results published in patent US20180028622A1, “TREATMENT OF OSTEOPOROSIS” (Entera Bio Ltd., priority 2015, published 2018).
Where two headings read alike, the source gives them in different places. Blank lines part the entries; values can stand above or below the compound they belong to.

Experiments:
[1] = Phase I clinical study of oral teriparatide formulations vs subcutaneous injection, plasma PTH(1-34); type: in vivo, human
Experimental: A Phase I clinical study of exemplary oral formulations comprising teriparatide (parathyroid hormone (1-34)) was conducted at the Hadassah Clinical Research Center. 42 healthy volunteers were included throughout the study.
The formulation was composed of teriparatide (200, 400, 680, 1400 or 1800 μg), SNAC (sodium 8-N-(2-hydroxybenzoyl) aminocaprylate), soybean trypsin inhibitor and magnesium stearate.
Tablets were administered in the morning after an 8-hour overnight fast and immediately followed by 150 ml of water. At each visit a standard meal was provided 3 hours after drug administration.
To determine parathyroid hormone concentrations, blood samples (4 ml each) were drawn via an indwelling catheter from the forearm vein at predetermined time points. The cannula was flushed with 1.5 ml normal saline after each sampling. In addition, to avoid sample dilution, 1 ml of blood was drawn and discarded before the next sample. The blood samples were taken at following times: baseline (predose), 15 minutes, 30 minutes, 45 minutes, 60 minutes, 75 minutes, 90 minutes, 105 minutes, 2 hours, 3 hours, 4 hours and 5 hours post-administration. Each blood sample was collected into a single tube containing EDTA (ethylenediaminetetraacetic acid) and placed on ice. Within 15 minutes of blood collection, samples were centrifuged for 10 minutes at 4° C. (2500 rotations per minute) and the plasma was separated and divided into two or three aliquots. Each aliquot was transferred into appropriately labeled polypropylene tubes and stored at approximately −20° C. pending analysis. PTH(1-34) levels were measured using an IDS-iSYS automated assay for the measurement of intact PTH(1-34) in human plasma or serum.
Oral administration of teriparatide was performed as described hereinabove at doses of 200, 400, 680, 1400 or 1800 μg. The Cmax of PTH(1-34) for each orally administered dose was compared with the Cmax of PTH(1-34) for subcutaneous injection of 20 μg teriparatide.

[2] = Open label pharmacokinetic study of oral teriparatide tablet, two visits; type: in vivo, human; conditions: for Tmax: human, plasma, po, 0.75 mg; for Tmax / Cmax after 1st administration / Cmax after 2nd administration: oral tablet 0.75 mg teriparatide with SNAC and SBTI
Experimental: An open label comparative pharmacokinetic study was performed in healthy volunteers over the course of 3 months. Each volunteer received—in each of two visits—the same oral tablet containing 0.75 mg of teriparatide, a recombinant form of parathyroid hormone (1-34).
The formulation was composed of teriparatide (0.75 mg), SNAC (sodium 8-N-(2-hydroxybenzoyl)aminocaprylate), soybean trypsin inhibitor (SBTI) and a small amount of magnesium stearate.
Tablets were administered in the morning after an 8-hour overnight fast and immediately followed by 150 ml of water. At each visit a standard meal was provided 3 hours after drug administration. […] There was a two weeks period between the visits.
To determine parathyroid hormone(1-34) (PTH(1-34)) concentrations, blood samples (4 ml each) were drawn via an indwelling catheter from the forearm vein at predetermined time points during each visit. The cannula was flushed with 1.5 ml normal saline after each sampling. In addition, to avoid sample dilution, 1 ml of blood was drawn and discarded before the next sample. The blood samples were taken at following times: baseline (predose), 10 minutes, 15 minutes, 20 minutes, 30 minutes, 45 minutes, 60 minutes, 75 minutes, 90 minutes, 105 minutes, 2 hours, 3 hours, 4 hours and 5 hours post-administration. Each blood sample was collected into a single tube containing EDTA (ethylenediaminetetraacetic acid) and placed on ice. Within 15 minutes of blood collection, samples were centrifuged for 10 minutes at 4° C. (2500 rotations per minute) and the plasma was separated and divided into two or three aliquots. Each aliquot was transferred into appropriately labeled polypropylene tubes and stored at approximately −20° C. pending analysis. PTH(1-34) levels were measured using an IDS-iSYS automated assay for the measurement of intact PTH(1-34) in human plasma or serum.

[3] = Pharmacokinetic study of oral teriparatide tablet with water or sodium bicarbonate solution; type: in vivo, human; conditions: oral tablet 0.75 mg with 150 ml of 3 mg/ml sodium bicarbonate solution
Experimental: An open label comparative pharmacokinetic study was performed on ten healthy volunteers. On different visits, each volunteer received the same oral tablet containing 0.75 mg of teriparatide, a recombinant form of parathyroid hormone (1-34) (PTH(1-34)). In the first visit, the tablet was administered with 150 ml water, whereas in the second visit the tablet was administered with 150 ml of 3 mg/ml sodium bicarbonate aqueous solution.
The formulation was composed of teriparatide (0.75 mg), SNAC (sodium 8-N-(2-hydroxybenzoyl) aminocaprylate), soybean trypsin inhibitor (SBTI) and a small amount of magnesium stearate.
Tablets were administered in the morning after an 8-hour overnight fast. At each visit a standard meal was provided 3 hours after drug administration. […] There was a two week period between the two visits.
To determine PTH(1-34) concentrations, blood samples were drawn and PTH(1-34) levels were measured using an IDS-iSYS automated assay, using procedures described in Example 1 hereinabove. Relative absorption was determined based on the AUC (area under curve) parameter.

[4] = system: cAMP, a known marker of PTH activity; experiment: Plasma cAMP levels after oral or subcutaneous teriparatide; type: in vivo, human
Experimental: In addition, plasma levels of cAMP, a known marker of PTH activity, were determined in order to confirm biological activity of administered PTH. cAMP plasma levels were measured following oral administration of 680 μg teriparatide or subcutaneous injection of 20 μg teriparatide, as described hereinabove.

[5] = Dissolution test of tablets in simulated gastric buffer, released SNAC by HPLC; type: physicochemical; conditions: tablet with 100 mg sodium bicarbonate vs tablet without; simulated gastric buffer pH 2.0, 37° C.
Experimental: The tablets were in a form of a homogeneous mixture.
Each tablet formulation was subjected to a dissolution test in 100 ml of simulated gastric buffer (without pepsin), pH 2.0, at 37° C., according to USP 23 Apparatus 2 (paddle) with 50 rotations per minute. The amount of released SNAC in each sample was determined chromatographically, using an HPLC apparatus with Cosmosil™ 5 C18-MS-II (4.6 ID×250 mm) column. Mobile phase consisted of 50% acetonitrile and 50% phosphoric acid solution (0.1%). Flow rate was 1 ml/minute and injection volume was 25 μl. Amount of released SNAC was calculated as a percentage of the amount of SNAC in the formulation.

decline of PTH levels following oral administration compared with subcutaneous administration ([1]; oral 1800 μg vs subcutaneous 20 μg): declined considerably more rapidly
Cmax of PTH(1-34) following oral administration, relation to dose ([1]; oral 200, 400, 680, 1400 or 1800 μg): proportional to the dose
oral dose providing a Cmax equivalent to subcutaneous administration of 20 μg teriparatide ([1]; oral tablet with SNAC and soybean trypsin inhibitor): roughly 750 μg
Tmax ([2]; subject A, fasted, plasma PTH(1-34), read-out: Tmax after 1st administration (converted)): 15 min
Tmax ([2]; subject A, two weeks after 1st, read-out: Tmax after 2nd administration (converted)): 20 min
Tmax ([2]; subject B, fasted, plasma PTH(1-34), read-out: Tmax after 1st administration (converted)): 10 min
Tmax ([2]; subject B, two weeks after 1st, read-out: Tmax after 2nd administration (converted)): 20 min
Tmax ([2]; subject C, fasted, plasma PTH(1-34), read-out: Tmax after 1st administration (converted)): 10 min
Tmax ([2]; subject C, two weeks after 1st, read-out: Tmax after 2nd administration (converted)): 20 min
time for plasma levels to return to baseline levels after tablet administration ([2]; oral tablet 0.75 mg): ≤ 60 min
Cmax between different administrations in a given subject ([2]; oral tablet 0.75 mg, two administrations two weeks apart): relatively constant
Cmax after 1st administration ([2]; subject A, fasted, plasma PTH(1-34)): 195 picogram/ml
Cmax after 2nd administration ([2]; subject A, two weeks after 1st): 283 picogram/ml
Cmax after 1st administration ([2]; subject B, fasted, plasma PTH(1-34)): 124 picogram/ml
Cmax after 2nd administration ([2]; subject B, two weeks after 1st): 116 picogram/ml
Cmax after 1st administration ([2]; subject C, fasted, plasma PTH(1-34)): 35 picogram/ml
Cmax after 2nd administration ([2]; subject C, two weeks after 1st): 36 picogram/ml
increase of absorption (AUC) in comparison with co-administration with water [3]: about 35%
Compound: CC[C@H](C)[C@H](NC(=O)[C@H](CCC(=O)O)NC(=O)[C@H](CO)NC(=O)[C@@H](NC(=O)[C@@H](N)CO)C(C)C)C(=O)N[C@@H](CCC(N)=O)C(=O)N[C@@H](CC(C)C)C(=O)N[C@@H](CCSC)C(=O)N[C@@H](Cc1cnc[nH]1)C(=O)N[C@@H](CC(N)=O)C(=O)N[C@@H](CC(C)C)C(=O)NCC(=O)N[C@@H](CCCCN)C(=O)N[C@@H](Cc1cnc[nH]1)C(=O)N[C@@H](CC(C)C)C(=O)N[C@@H](CC(N)=O)C(=O)N[C@@H](CO)C(=O)N[C@@H](CCSC)C(=O)N[C@@H](CCC(=O)O)C(=O)N[C@@H](CCCN=C(N)N)C(=O)N[C@H](C(=O)N[C@@H](CCC(=O)O)C(=O)N[C@@H](Cc1c[nH]c2ccccc12)C(=O)N[C@@H](CC(C)C)C(=O)N[C@@H](CCCN=C(N)N)C(=O)N[C@@H](CCCCN)C(=O)N[C@@H](CCCCN)C(=O)N[C@@H](CC(C)C)C(=O)N[C@@H](CCC(N)=O)C(=O)N[C@@H](CC(=O)O)C(=O)N[C@H](C(=O)N[C@@H](Cc1cnc[nH]1)C(=O)N[C@@H](CC(N)=O)C(=O)N[C@@H](Cc1ccccc1)C(=O)O)C(C)C)C(C)C [teriparatide]
plasma cAMP levels ([4]; oral administration of 680 μg): increased plasma cAMP levels to a similar degree
plasma cAMP levels ([4]; subcutaneous administration of 20 μg): increased plasma cAMP levels to a similar degree

dissolution (release) of SNAC from tablet [5]: considerably enhanced the dissolution
Compound: O=C(O)CCCCCCCNC(=O)c1ccccc1O [SNAC, sodium 8-N-(2-hydroxybenzoyl)aminocaprylate]
